The target in this assay is Serine/threonine-protein kinase ATR (Homo sapiens, UniProt Q13535). As to the kind of experiment: ATR Enzyme Activity Inhibition Assay. The procedure:
Prepare various buffer systems required for the experiment:1. […] Prepare detection buffer: Dilute each of the anti-phospho-p53-Eu cryptate (Cisbio, Cat #61P08KA) and anti-GST-d2 (Cisbio, Cat #61GSTDLB) to 1 unit using HTRF detection buffer (Cisbio, Cat #62SDBRDF).Powdered compounds were dissolved in DMSO to from a stock solution at a concentration of 10 mM. The solution of compounds to be tested at a concentration of […] was performed a 3-fold dilution for 10 concentrations with DMSO. […] 5 μL of ATR was added to each well accordingly. Each well is incubated at 25° C. for 10 min, added with 5 μL of reaction substrate, incubated at 25° C. for 90 min and added with 10 μL of detection solution.
Sequence of Serine/threonine-protein kinase ATR (Q13535 whole entry): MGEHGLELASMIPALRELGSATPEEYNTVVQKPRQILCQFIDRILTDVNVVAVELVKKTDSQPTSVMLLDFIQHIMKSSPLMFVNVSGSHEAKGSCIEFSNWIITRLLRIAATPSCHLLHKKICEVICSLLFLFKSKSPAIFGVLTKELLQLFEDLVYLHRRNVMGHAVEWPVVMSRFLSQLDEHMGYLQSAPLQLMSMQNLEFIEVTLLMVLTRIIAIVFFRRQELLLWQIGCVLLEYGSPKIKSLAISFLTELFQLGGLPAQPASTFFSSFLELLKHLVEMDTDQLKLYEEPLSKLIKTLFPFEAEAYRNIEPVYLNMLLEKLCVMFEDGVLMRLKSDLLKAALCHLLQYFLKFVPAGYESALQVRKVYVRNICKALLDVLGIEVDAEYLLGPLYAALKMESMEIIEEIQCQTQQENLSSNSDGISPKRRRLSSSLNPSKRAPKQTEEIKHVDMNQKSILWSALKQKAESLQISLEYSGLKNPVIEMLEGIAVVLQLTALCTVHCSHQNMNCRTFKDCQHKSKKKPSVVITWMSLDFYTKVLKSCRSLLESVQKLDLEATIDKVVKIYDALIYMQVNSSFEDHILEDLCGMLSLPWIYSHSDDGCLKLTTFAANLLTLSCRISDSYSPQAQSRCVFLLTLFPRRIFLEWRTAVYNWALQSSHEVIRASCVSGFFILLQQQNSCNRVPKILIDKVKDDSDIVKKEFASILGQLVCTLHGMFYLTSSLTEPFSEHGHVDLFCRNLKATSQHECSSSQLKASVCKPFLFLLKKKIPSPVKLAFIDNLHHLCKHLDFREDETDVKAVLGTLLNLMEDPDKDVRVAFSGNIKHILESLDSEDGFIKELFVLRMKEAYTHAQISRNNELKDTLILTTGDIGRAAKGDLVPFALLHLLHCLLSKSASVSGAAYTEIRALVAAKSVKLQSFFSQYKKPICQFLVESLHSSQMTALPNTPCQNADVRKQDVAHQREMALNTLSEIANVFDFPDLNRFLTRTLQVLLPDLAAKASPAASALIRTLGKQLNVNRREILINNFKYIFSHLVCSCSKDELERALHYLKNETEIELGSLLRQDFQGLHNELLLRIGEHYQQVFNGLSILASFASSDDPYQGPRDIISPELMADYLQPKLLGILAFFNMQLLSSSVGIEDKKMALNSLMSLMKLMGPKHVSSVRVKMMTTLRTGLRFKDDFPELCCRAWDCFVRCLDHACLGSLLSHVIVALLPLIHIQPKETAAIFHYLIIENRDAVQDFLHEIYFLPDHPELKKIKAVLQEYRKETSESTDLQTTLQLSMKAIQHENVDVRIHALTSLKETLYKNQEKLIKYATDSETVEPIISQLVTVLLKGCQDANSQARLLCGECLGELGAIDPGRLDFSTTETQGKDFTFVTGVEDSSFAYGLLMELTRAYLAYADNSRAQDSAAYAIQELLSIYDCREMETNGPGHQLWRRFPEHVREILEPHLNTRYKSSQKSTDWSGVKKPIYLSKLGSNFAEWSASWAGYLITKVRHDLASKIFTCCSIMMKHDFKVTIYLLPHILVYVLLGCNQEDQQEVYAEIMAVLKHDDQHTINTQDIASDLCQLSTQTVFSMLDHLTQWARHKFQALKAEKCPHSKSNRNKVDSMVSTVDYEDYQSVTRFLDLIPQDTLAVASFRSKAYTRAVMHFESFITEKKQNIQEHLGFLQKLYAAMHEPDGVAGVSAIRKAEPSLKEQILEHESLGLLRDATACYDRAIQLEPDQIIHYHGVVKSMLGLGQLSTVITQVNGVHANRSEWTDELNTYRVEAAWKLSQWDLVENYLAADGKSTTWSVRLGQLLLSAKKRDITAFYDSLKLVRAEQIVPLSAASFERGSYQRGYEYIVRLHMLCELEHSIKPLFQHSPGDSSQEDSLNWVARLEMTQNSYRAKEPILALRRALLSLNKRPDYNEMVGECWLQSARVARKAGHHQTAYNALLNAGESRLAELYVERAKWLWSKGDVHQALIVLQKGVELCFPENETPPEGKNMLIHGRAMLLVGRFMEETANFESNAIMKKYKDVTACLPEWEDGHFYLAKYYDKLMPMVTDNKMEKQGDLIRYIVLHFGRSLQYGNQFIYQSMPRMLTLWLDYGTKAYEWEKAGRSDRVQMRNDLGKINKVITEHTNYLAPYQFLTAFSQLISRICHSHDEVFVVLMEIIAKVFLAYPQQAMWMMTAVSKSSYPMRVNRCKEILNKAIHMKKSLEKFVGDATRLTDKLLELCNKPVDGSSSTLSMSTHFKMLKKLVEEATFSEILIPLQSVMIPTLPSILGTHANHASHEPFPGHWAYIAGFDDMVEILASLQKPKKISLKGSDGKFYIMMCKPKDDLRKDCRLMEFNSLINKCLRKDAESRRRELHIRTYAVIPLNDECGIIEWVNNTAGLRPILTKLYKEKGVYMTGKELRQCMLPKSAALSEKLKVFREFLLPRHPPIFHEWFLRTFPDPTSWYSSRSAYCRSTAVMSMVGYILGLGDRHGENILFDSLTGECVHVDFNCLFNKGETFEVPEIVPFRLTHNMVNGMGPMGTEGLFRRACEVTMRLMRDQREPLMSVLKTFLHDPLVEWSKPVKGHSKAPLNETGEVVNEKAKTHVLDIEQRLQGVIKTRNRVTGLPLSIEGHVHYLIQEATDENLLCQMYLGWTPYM
Consider `CC(C)S(=O)(=O)c1ccc(-c2cnc(N)c(-c3cc(-c4ccc(CNC(N)=O)cc4)no3)n2)cc1` [US20250026742, Example 9], for which the IC50 – broadly, the concentration that gives 50% inhibition – was 1.83 nM. The value for `CN=S(C)(=O)c1ccc(-c2cnc(N)c(-c3cc(-c4ccc(CNC(=N)N)cc4)no3)n2)cc1` (stereo not drawn) [US20250026742, Example 12] was 2.53 nM. As to `CC(=N)Nc1ccc(-c2cc(-c3nc(-c4ccc(S(=O)(=O)C(C)C)cc4)cnc3N)on2)cc1` [US20250026742, Example 29], half-maximal inhibition (IC50) required 3.12 nM. The IC50 values of the last two compounds are within 1.5-fold of each other.

For the origin of these results see BindingDB's records for patent US20250026742 (Suzhou Ark Biopharmaceutical Co., 2025).
